This test concerns Human platelet aggregation caused by ADP. As to the kind of experiment: Inhibition of ADP-induced platelet aggregation (Mimic-human PRP). The class given is cell-based. The note with it: 20 μM ADP, human platelet concentrate diluted with PPP, absorption at 595 nm. The gist of the method:
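Human PRP diluted with PPP to 3–4×10^8 platelets/mL was preincubated 20 min at room temperature with compound (0.01–30 μM, DMSO), then stimulated with 20 μM ADP. Aggregation read as A595 increase at 3 min versus 0 and 20 μM ADP controls; Ki from sigmoidal non-linear regression.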

The text below walks through data of patent US20110166121A1 (LG LIFE SCIENCES LTD., priority 2008, published 2011).

In general, Ki refers to a dissociation constant, usually derived from enzyme kinetics or from competition with a known ligand. A low value points to tighter binding.

For `CCCc1cc2c(N3CCn4c(nnc4C(F)(F)F)C3)nc(OCCCN3CCCC3=O)nc2s1` [Example 9-85, 1-{3-[6-Propyl-4-(3-trifluoromethyl-5,6-dihydro-8H-[1,2,4]triazolo[4,3-a]pyrazin-7-yl)-thieno[2,3-d]pyrimidin-2-yloxy]-propyl}-pyrrolidin-2-one], the Ki came out at 2000 nM. That is a single-digit micromolar value.

`CCCc1cc2c(N3CCn4c(nnc4C(F)(F)F)C3)nc(OCCCNC(=O)OC)nc2s1` [Example 9-86, {3-[6-Propyl-4-(3-trifluoromethyl-5,6-dihydro-8H-[1,2,4]triazolo[4,3-a]pyrazin-7-yl)-thieno[2,3-d]pyrimidin-2-yloxy]-propyl}-carbamic acid methyl ester]: the Ki is 690 nM. This Ki lies about 2.9-fold lower than the previous one. The result for `CCCc1cc2c(N3CCn4c(nnc4C(F)(F)F)C3)nc(OCCCNC(C)=O)nc2s1` [Example 9-87, N-{3-[6-Propyl-4-(3-trifluoromethyl-5,6-dihydro-8H-[1,2,4]triazolo[4,3-a]pyrazin-7-yl)-thieno[2,3-d]pyrimidin-2-yloxy]-propyl}-acetamide] reads 430 nM.

Turning to `CCCc1cc2c(N3CCn4c(nnc4C(F)(F)F)C3)nc(OCCCCNC(=O)OC)nc2s1` [Example 9-88, {4-[6-Propyl-4-(3-trifluoromethyl-5,6-dihydro-8H-[1,2,4]triazolo[4,3-a]pyrazin-7-yl)-thieno[2,3-d]pyrimidin-2-yloxy]-butyl}-carbamic acid methyl ester], the Ki was found to be 420 nM.

On to `CCCc1cc2c(N3CCn4c(nnc4C(F)(F)F)C3)nc(OCCCCNC(C)=O)nc2s1` [Example 9-89, N-{4-[6-Propyl-4-(3-trifluoromethyl-5,6-dihydro-8H-[1,2,4]triazolo[4,3-a]pyrazin-7-yl)-thieno[2,3-d]pyrimidin-2-yloxy]-butyl}-acetamide], for which the Ki is 290 nM. Under `CCCc1cc2c(N3CCn4c(nnc4C(F)(F)F)C3)nc(OCCCNC=O)nc2s1` [Example 9-90, N-{3-[6-Propyl-4-(3-trifluoromethyl-5,6-dihydro-8H-[1,2,4]triazolo[4,3-a]pyrazin-7-yl)-thieno[2,3-d]pyrimidin-2-yloxy]-propyl}-formamide] stands 110 nM; under `CCCc1cc2c(N3CCn4c(nnc4C(F)(F)F)C3)nc(OCCCCNC=O)nc2s1` [Example 9-91, N-{4-[6-Propyl-4-(3-trifluoromethyl-5,6-dihydro-8H-[1,2,4]triazolo[4,3-a]pyrazin-7-yl)-thieno[2,3-d]pyrimidin-2-yloxy]-butyl}-formamide], 190 nM. Under `CCCc1cc2c(N3CCn4c(nnc4C(F)(F)F)C3)nc(OCCCn3cccc3)nc2s1` [Example 9-92, 7-[6-Propyl-2-(3-pyrrol-1-yl-propoxy)-thieno[2,3-d]pyrimidin-4-yl]-3-trifluoromethyl-5,6,7,8-tetrahydro-[1,2,4]triazolo[4,3-a]pyrazine] stands 1300 nM; under `CCCc1cc2c(N3CCn4c(nnc4C(F)(F)F)C3)nc(OCCN(C)C=O)nc2s1` [Example 9-93, N-Methyl-N-{2-[6-propyl-4-(3-trifluoromethyl-5,6-dihydro-8H-[1,2,4]triazolo[4,3-a]pyrazin-7-yl)-thieno[2,3-d]pyrimidin-2-yloxy]-ethyl}-formamide], 52 nM; under `CCCc1cc2c(N3CCn4c(nnc4C(F)(F)F)C3)nc(N3CC[C@H](N(CCO)C(=O)OC)C3)nc2s1` [Example 9-94, (2-Hydroxy-ethyl)-{(S)-1-[6-propyl-4-(3-trifluoromethyl-5,6-dihydro-8H-[1,2,4]triazolo[4,3-a]pyrazin-7-yl)-thieno[2,3-d]pyrimidin-2-yl]-pyrrolidin-3-yl}-carbamic acid methyl ester], 280 nM. The result for `CCCc1cc2c(N3CCn4c(nnc4C(F)(F)F)C3)nc(OCCN(C)C(=O)OC)nc2s1` [Example 9-95, Methyl-{2-[6-propyl-4-(3-trifluoromethyl-5,6-dihydro-8H-[1,2,4]triazolo[4,3-a]pyrazin-7-yl)-thieno[2,3-d]pyrimidin-2-yloxy]-ethyl}-carbamic acid methyl ester] reads 7.2 nM; that for `CCCc1cc2c(N3CCn4c(nnc4C(F)(F)F)C3)nc(N3CC[C@H](N(CCO)C(C)=O)C3)nc2s1` [Example 9-96, N-(2-Hydroxy-ethyl)-N-{(S)-1-[6-propyl-4-(3-trifluoromethyl-5,6-dihydro-8H-[1,2,4]triazolo[4,3-a]pyrazin-7-yl)-thieno[2,3-d]pyrimidin-2-yl]-pyrrolidin-3-yl}-acetamide], 78 nM. `CCCc1cc2c(N3CCn4c(nnc4C(F)(F)F)C3)nc(OCCN(C)C(C)=O)nc2s1` [Example 9-97, N-Methyl-N-{2-[6-propyl-4-(3-trifluoromethyl-5,6-dihydro-8H-[1,2,4]triazolo[4,3-a]pyrazin-7-yl)-thieno[2,3-d]pyrimidin-2-yloxy]-ethyl}-acetamide] yielded a Ki of 6 nM.

Regarding `CCCc1cc2c(N3CCn4c(nnc4C(F)(F)F)C3)nc(OCCN(CCO)C(=O)OC)nc2s1` [Example 9-98, (2-Hydroxy-ethyl)-{2-[6-propyl-4-(3-trifluoromethyl-5,6-dihydro-8H-[1,2,4]triazolo[4,3-a]pyrazin-7-yl)-thieno[2,3-d]pyrimidin-2-yloxy]-ethyl}-carbamic acid methyl ester], the affinity corresponds to a Ki of 23 nM. This Ki is about 3.8-fold higher than that of the compound before.

Take `CCCc1cc2c(N3CCn4c(nnc4C(F)(F)F)C3)nc(OCCN3CCOC3=O)nc2s1` [Example 9-99, 3-{2-[6-Propyl-4-(3-trifluoromethyl-5,6-dihydro-8H-[1,2,4]triazolo[4,3-a]pyrazin-7-yl)-thieno[2,3-d]pyrimidin-2-yloxy]-ethyl}-oxazolidin-2-one]: the Ki was found to be 4 nM. The result for `CCCc1cc2c(N3CCn4c(nnc4C(F)(F)F)C3)nc(OCCN(CCOC(C)=O)C(C)=O)nc2s1` [Example 9-100, Acetic Acid 2-(acetyl-{2-[6-propyl-4-(3-trifluoromethyl-5,6-dihydro-8H-[1,2,4]triazolo[4,3-a]pyrazin-7-yl)-thieno[2,3-d]pyrimidin-2-yloxy]-ethyl}-amino)-ethyl ester] reads 38 nM. Consider `CCCc1cc2c(N3CCn4c(nnc4C(F)(F)F)C3)nc(OCCN(C=O)CCO)nc2s1` [Example 9-101, N-(2-Hydroxy-ethyl)-N-{2-[6-propyl-4-(3-trifluoromethyl-5,6-dihydro-8H-[1,2,4]triazolo[4,3-a]pyrazin-7-yl)-thieno[2,3-d]pyrimidin-2-yloxy]-ethyl}-formamide], for which the Ki came out at 12 nM. The compound `CCCc1cc2c(N3CCn4c(nnc4C(F)(F)F)C3)nc(OCCN(CCO)C(C)=O)nc2s1` [Example 9-102, N-(2-Hydroxy-ethyl)-N-{2-[6-propyl-4-(3-trifluoromethyl-5,6-dihydro-8H-[1,2,4]triazolo[4,3-a]pyrazin-7-yl)-thieno[2,3-d]pyrimidin-2-yloxy]-ethyl}-acetamide] displayed a Ki of 8 nM. `CCCc1cc2c(N3CCn4c(nnc4C(F)(F)F)C3)nc(N(C)CCC#N)nc2s1` [Example 9-103, 3-{Methyl-[6-propyl-4-(3-trifluoromethyl-5,6-dihydro-8H-[1,2,4]triazolo[4,3-a]pyrazin-7-yl)-thieno[2,3-d]pyrimidin-2-yl]-amino}-propionitrile]: the Ki amounted to 70 nM. The result for `CCCc1cc2c(N3CCn4c(nnc4C(F)(F)F)C3)nc(N(C)CCC(N)=O)nc2s1` [Example 9-104, 3-{Methyl-[6-propyl-4-(3-trifluoromethyl-5,6-dihydro-8H-[1,2,4]triazolo[4,3-a]pyrazin-7-yl)-thieno[2,3-d]pyrimidin-2-yl]-amino}-propionamide] reads 14 nM; that for `CCCc1cc2c(N3CCn4c(nnc4C(F)(F)F)C3)nc(OCCN3C(=O)CNC3=O)nc2s1` [Example 9-105, 3-{2-[6-Propyl-4-(3-trifluoromethyl-5,6-dihydro-8H-[1,2,4]triazolo[4,3-a]pyrazin-7-yl)-thieno[2,3-d]pyrimidin-2-yloxy]-ethyl}-imidazolidine-2,4-dione], over 3000 nM.

Consider `CCCc1cc2c(N3CCn4c(nnc4C(F)(F)F)C3)nc(N(C)CCO)nc2s1` [Example 9-106, 2-{Methyl-[6-propyl-4-(3-trifluoromethyl-5,6-dihydro-8H-[1,2,4]triazolo[4,3-a]pyrazin-7-yl)-thieno[2,3-d]pyrimidin-2-yl]-amino}-ethanol], for which the Ki stood at 140 nM. The result for `CCCc1cc2c(N3CCn4c(nnc4C(F)(F)F)C3)nc(NC(=O)OC)nc2s1` [Example 9-107, [6-Propyl-4-(3-trifluoromethyl-5,6-dihydro-8H-[1,2,4]triazolo[4,3-a]pyrazin-7-yl)-thieno[2,3-d]pyrimidin-2-yl]-carbamic acid methyl ester] reads 170 nM.
